Among the data in the OPERA property sets (Mansouri et al. 2018) are solubility values, retold here.

One may read the solubility as the concentration that dissolves in the medium under given conditions.

Molecules are shown by their SMILES. ≈ marks a conversion by molar mass, not a printed value. Where a SMILES comes first, the peptide text is derived from it.

Details in one data set: not given
Take `CCC1(CC(C)=O)C(=O)NC(=O)NC1=O`: the solubility was 171 mM (≈ 36400 µg/mL).
Same read-out and setting: for `NC(CO)C(=O)N[C@@H](CO)C(=O)O` (stereo in doubt) the value was 260 mM (≈ 50000 µg/mL); for `CCC1OCCO1`, 1960 mM (≈ 200000 µg/mL).
On the same count and under the same terms, for `COC1CCCC(C)O1` (stereo not given) the value was 256 mM (≈ 33300 µg/mL).
Still for that read-out and setting: next, `COC(/C=C/C(OC)OC)OC`: 1140 mM (≈ 200000 µg/mL); `CCCCOC(=O)CCOC`: 61.2 mM (≈ 9800 µg/mL).
Regarding `CC(C)C1OCCO1`, the solubility came to 861 mM (≈ 100000 µg/mL).
The compound `CC(C)(S(C)(=O)=O)S(C)(=O)=O` displayed a solubility of 35.4 mM (≈ 7100 µg/mL).
Still for that read-out and setting: next, `CC(C)C[C@H](N)C(=O)N[C@@H](C)C(=O)NCC(=O)O` (H-Leu-Ala-Gly-OH): 127 mM (≈ 33000 µg/mL).
Still for that read-out and setting: for `CC(C)(NC(=O)c1ccccc1)C(N)=O` the value was 24.2 mM (≈ 5000 µg/mL); for `CCN(CC)CN(CC)CC`, 632 mM (≈ 100000 µg/mL).
Same read-out and setting: for `O=C(O)C=CCCC(=O)O` the value was 62.4 mM (≈ 9000 µg/mL).
In turn, `CC12CCC(C(CO)C1=O)C2(C)C` (stereo not given) displayed a solubility of 610 mM (≈ 111000 µg/mL).
Same read-out and setting: next, `Oc1ccc(-c2ccccc2)cc1O`: 8.59 mM (≈ 1600 µg/mL).
Still for that read-out and setting: for `O=C(O)CSSSSCC(=O)O` the value was 35.3 mM (≈ 8700 µg/mL); for `CC=Cc1ccc(OCC(=O)O)c(OC)c1`, 26.1 mM (≈ 5810 µg/mL).
Still for that read-out and setting: for `O=C(c1cc([N+](=O)[O-])cc([N+](=O)[O-])c1)N(O)c1ccccc1` the value was 0.231 mM (≈ 70 µg/mL); for `O=[N+]([O-])CCl`, 524 mM (≈ 50000 µg/mL); for `CC(C)CCOCC(O)CO` (stereo not given), 61.6 mM (≈ 10000 µg/mL).
Take `CC(C)CC1OCCO1`: the solubility amounted to 427 mM (≈ 55600 µg/mL).
Same read-out and setting: for `NC(CS(=O)(=O)c1ccc(Cl)cc1)C(=O)O` (stereo not given) the value was 2.93 mM (≈ 774 µg/mL); for `CC1(O)CCC(C)(O)CC1` (stereo not given), 243 mM (≈ 35000 µg/mL); for `CC(C)[C@H](NC(=O)CN)C(=O)O` (H-Gly-Val-OH), 2870 mM (≈ 500000 µg/mL).
The same measure, in the same setting: next, `CCCCCSS(=O)CCCCC` (stereo not given): 0.674 mM (≈ 150 µg/mL).
In turn, `NC(=O)NCl` returned a solubility of 2120 mM (≈ 200000 µg/mL).

The same data set, now with this note: 20 °C.
Turning to `C=CCC(C(=O)O)C(C)C(=O)O` (stereo not given), the solubility is 87.1 mM (≈ 15000 µg/mL).
Still for that read-out and setting: for `Cc1ncnc2nc[nH]c12` the value was 1490 mM (≈ 200000 µg/mL); for `O=[N+]([O-])c1cccc(CO)c1`, 3.85 mM (≈ 590 µg/mL).
On the same count and under the same terms, next, `CC[C@@H]1C(=O)O[C@H]1C`: 216 mM (≈ 24600 µg/mL).
Turning to `Cc1ccc(C(=O)O)o1`, the solubility came to 150 mM (≈ 18900 µg/mL).
The same measure, in the same setting: for `CC=CCC1(C)C(=O)NC(=O)N(C)C1=O` (stereo not given) the value was 28.5 mM (≈ 6000 µg/mL); for `Sc1nnc(S)s1`, 176 mM (≈ 26400 µg/mL).
On the same count and under the same terms, for `CCOC(C)CCO` (stereo not given) the value was 423 mM (≈ 50000 µg/mL); for `CN(C)c1ncc2nccnc2n1`, 2280 mM (≈ 400000 µg/mL); for `c1ccc2c(c1)Nc1ccc3ccccc3c1S2`, 0.000267 mM (≈ 0.0667 µg/mL).
On the same count and under the same terms, for `O=C(O)CCCC(C(=O)O)(c1ccccc1)c1ccccc1` the value was 0.67 mM (≈ 200 µg/mL); for `NC[C@H](O)C(=O)O`, 148 mM (≈ 15500 µg/mL); for `CSc1cc(O)cc(O)c1`, 16 mM (≈ 2500 µg/mL).
As for `OCc1cc(Cl)c(Cl)c(Cl)c1`, the solubility was 0.804 mM (≈ 170 µg/mL).
The same measure, in the same setting: next, `O=CCCCCCCCC(=O)O`: 110 mM (≈ 19000 µg/mL); `CC(=O)NC(NC(C)=O)c1ccccc1`: 48.5 mM (≈ 10000 µg/mL); `O=c1nc[nH]c2nc(-c3ccccc3)c(-c3ccccc3)nc12`: 0.666 mM (≈ 200 µg/mL).
The same measure, in the same setting: next, `Cc1nc2c(=O)n(C)c(=O)n(C)c2nc1C`: 45.4 mM (≈ 10000 µg/mL); `CC(=O)C(=O)c1ccccc1`: 17.5 mM (≈ 2600 µg/mL); `CSc1ncnc2nccnc12`: 4.32 mM (≈ 769 µg/mL).
Still for that read-out and setting: for `CC(O)(CCl)CCl` the value was 657 mM (≈ 94000 µg/mL); for `Nc1ncc2[nH]cnc2n1`, 61.7 mM (≈ 8330 µg/mL).
As to `CC=CC(=O)Nc1ccc(O)cc1`, the solubility was found to be 2.26 mM (≈ 400 µg/mL).
Same read-out and setting: for `Cc1ncnc2c(O)cccc12` the value was 2.5 mM (≈ 400 µg/mL).
In the case of `CC=C(CCCC)C(=O)NC(N)=O`, the solubility was 1.63 mM (≈ 300 µg/mL).
On the same count and under the same terms, for `O=C(CCCCC(=O)NCCO)NCCO` the value was 2580 mM (≈ 600000 µg/mL).
For `CC(=O)Nc1ccc(S(=O)(=O)Nc2ccccn2)cc1`, the solubility worked out at 0.192 mM (≈ 56 µg/mL).
As to `CC(C)C(CC(=O)O)C(=O)O` (stereo not given), the solubility turned out to be 391 mM (≈ 62700 µg/mL).
The same measure, in the same setting: for `O=S(=O)(CCCl)CCCl` the value was 31.4 mM (≈ 6000 µg/mL); for `N#Cc1c(O)cc(Cl)[nH]c1=O`, 58.6 mM (≈ 10000 µg/mL).
Same read-out and setting: for `NC(=O)N/N=C/[C@H](O)[C@@H](O)[C@H](O)CO` the value was 743 mM (≈ 154000 µg/mL); for `c1ccc2c3c(ccc2c1)Nc1ccc2ccccc2c1S3`, 0.000132 mM (≈ 0.0396 µg/mL); for `COc1c(C(=O)O)cccc1C(=O)O`, 5.1 mM (≈ 1000 µg/mL).
The same measure, in the same setting: for `NC(=O)CBr` the value was 1160 mM (≈ 160000 µg/mL).
In turn, `Oc1cnc2ccccc2c1` had a solubility of 4.05 mM (≈ 588 µg/mL).
In the case of `O=C(O)c1cccc2ncccc12`, the solubility was 2.1 mM (≈ 364 µg/mL).
Still for that read-out and setting: for `Cc1cc(C)nc(C(N)=O)n1` the value was 1320 mM (≈ 200000 µg/mL); for `Cc1nc(C)c(C(=O)O)cc1C(=O)O`, 1.55 mM (≈ 303 µg/mL).
On the same count and under the same terms, next, `CCOC(=O)C(C)=CC(=O)[O-]`: 94.2 mM; `CCc1nc2cnc(O)nc2nc1CC`: 5.44 mM (≈ 1110 µg/mL); `Nc1ccncc1`: 885 mM (≈ 83300 µg/mL).
In turn, `O=[N+]([O-])c1ccccc1CO` displayed a solubility of 32.7 mM (≈ 5000 µg/mL).
The same measure, in the same setting: for `CCCCCCC(O)C(O)C(=O)O` (stereo not given) the value was 28.4 mM (≈ 5400 µg/mL); for `C=CCOc1ccccc1C(N)=O`, 5.93 mM (≈ 1050 µg/mL).
Take `CC(C)=NNC(N)=O`: the solubility was 540 mM (≈ 62200 µg/mL).
